Assay: xn = mol fraction of the nth substance listed
Settings: 101 kPa

CC[n+]1ccn(C)c1.O=S(=O)([O-])O + O=C([O-])CC(O)(CC(=O)[O-])C(=O)[O-].[NH4+].[NH4+].[NH4+] + O
viscosity [mPa·s]
Settings | 293.15 K | 298.15 K | 303.15 K | 308.15 K | 313.15 K
x2 = 0, x1 = 0.0006645 | 1.023 | 0.93 | 0.823 | 0.75 | 0.674
x2 = 0, x1 = 0.0007293 | 1.036 | 0.943 | 0.825 | 0.749 | 0.689
x2 = 0, x1 = 0.0009254 | 1.064 | 0.943 | 0.844 | 0.763 | 0.683
x2 = 0.0007784, x1 = 0.0007287 | 1.08 | 0.994 | 0.875 | 0.801 | 0.743
x2 = 0.0007964, x1 = 0.0009246 | 1.11 | 0.994 | 0.895 | 0.815 | 0.737
x2 = 0.000825, x1 = 0.0006639 | 1.07 | 0.983 | 0.877 | 0.803 | 0.727
x2 = 0.001056, x1 = 0.0007285 | 1.096 | 1.005 | 0.886 | 0.813 | 0.756
x2 = 0.001057, x1 = 0.0006638 | 1.083 | 0.992 | 0.886 | 0.813 | 0.737
x2 = 0.001176, x1 = 0.0009243 | 1.133 | 1.008 | 0.911 | 0.832 | 0.755
x2 = 0.001406, x1 = 0.0009241 | 1.146 | 1.017 | 0.919 | 0.841 | 0.765
x2 = 0.001588, x1 = 0.0007281 | 1.126 | 1.024 | 0.906 | 0.834 | 0.779
x2 = 0.001621, x1 = 0.0006634 | 1.115 | 1.012 | 0.906 | 0.835 | 0.761
x2 = 0.001717, x1 = 0.0006634 | 1.12 | 1.015 | 0.91 | 0.839 | 0.764
x2 = 0.001746, x1 = 0.000728 | 1.135 | 1.029 | 0.911 | 0.84 | 0.786
x2 = 0.001804, x1 = 0.0009237 | 1.169 | 1.03 | 0.934 | 0.857 | 0.782
x2 = 0.002295, x1 = 0.0009233 | 1.198 | 1.047 | 0.951 | 0.876 | 0.803
x2 = 0.002321, x1 = 0.0007276 | 1.168 | 1.048 | 0.931 | 0.861 | 0.809
x2 = 0.002323, x1 = 0.000663 | 1.155 | 1.034 | 0.93 | 0.86 | 0.787
x2 = 0.002686, x1 = 0.0007273 | 1.189 | 1.059 | 0.943 | 0.874 | 0.824
x2 = 0.002704, x1 = 0.0006627 | 1.176 | 1.046 | 0.942 | 0.873 | 0.801
x2 = 0.002709, x1 = 0.0009229 | 1.223 | 1.06 | 0.965 | 0.891 | 0.82

Reference: the CheMixHub ionic liquid set
